Test [1] concerns Mut6 cells. Briefly: Mut6 cell survival / anti-proliferative activity. Format: cell-based, murine. To be noted: read-out: IC50, viability / anti-proliferative activity in Mut6.
A further test has as its system Lss. Briefly: quantification of canonical and shunt pathway sterol intermediates in Mut6 cells. Format: cell-based, mouse. From the text: Inhibitors of LSS block the canonical cholesterol biosynthetic pathway (referred to as the Bloch and Kandutsch-Russell pathways) and concomitantly stimulate the production of 24(S),25-epoxycholesterol (EPC) through a “shunt” pathway (Mark et al., 1996; Morand et al., 1997). For sterol synthesis, squalene, a symmetric polyene hydrocarbon intermediate in the cholesterol biosynthetic pathway, is oxidized by squalene epoxidase (SQLE) in the presence of NADPH and oxygen to generate (S)-2,3-oxidosqualene (OS), which in turn is converted by LSS into lanosterol. LSS inhibition shunts OS back to SQLE, which catalyzes a second oxidation event yielding the C2-symmetric (S,S)-2,3:22,23-dioxidosqualene (DOS). DOS is a preferred substrate for LSS and, even in the presence of an LSS inhibitor, DOS is converted by LSS into 24(S),25-epoxylanosterol (EPL) (Boutaud et al., 1992). EPL is further converted into EPC by the same enzymes that convert lanosterol into cholesterol (Nelson et al., 1981a; Nelson et al., 1981b). The overall consequence of LSS inhibition is reduced levels of canonical pathway intermediates and increased levels of shunt pathway intermediates. […] We considered that the decrease in EPC at higher concentrations might be the result of complete inhibition of LSS; however, the levels of DOS and EPL continued to increase at doses where EPC was decreasing. […] Pertinent to this hypothesis, in astrocytes, EPC stimulates the expression of sterol transporters including ABCA1 and is itself readily effluxed (Wong et al., 2007). We hypothesize that a threshold level of EPC, reached at higher concentrations of 1, activates transporter expression, leading to EPC efflux and the observed decrease in EPC levels. Taken together, we conclude that inhibition of Lss by MM0299 (1) leads to a dose-dependent decrease in canonical intermediates and an increase in shunt pathway intermediates.
To better gauge the role of EPC in the anti-cancer activity of 1, we sought to determine whether the levels of EPC achieved in cells treated with 1 are sufficient for toxicity.

Test [2] relates to Mut6 cells. Briefly: rescue of toxicity by co-treatment with SQLE inhibitor NB-598 in Mut6 cells. It is filed as cell-based, murine. To be noted: co-treatment with NB-598. An excerpt:
To assess whether EPC was necessary for MM0299 activity, we considered pharmacologic tools that could selectively block the shunt pathway. In the context of LSS inhibition, the production of DOS requires two cycles of oxidation by squalene epoxidase (SQLE), whereas OS only requires one. Therefore, we reasoned that co-administration of an SQLE inhibitor might have a greater effect on DOS levels and impede flux through the shunt pathway. […] Taken together, we concluded that NB-598 is a pharmacologic tool to selectively block the shunt pathway and assess the requirement for EPC for MM0299 activity. […] These observations are consistent with the hypothesis that inhibition of LSS and the consequent increase in EPC are responsible for toxicity at low nanomolar range. We noted that 1 remained toxic to Mut6 cells at higher concentrations despite the addition of NB-598. Toxicity at these concentrations, which are not likely to be pharmacologically achievable, is unlikely to be a consequence of EPC production, and more likely to be the result of sterol depletion through direct inhibition of cholesterol biosynthesis.
As a consequence, even though Ro-48-8071 inhibits LSS, its anti-proliferative effects are more likely to be multifactorial. To evaluate the contribution of EPC for Ro 48-8071-induced toxicity, we co-incubated Ro 48-8071 with increasing concentrations of NB-598.

Test [3] has as its system enzymes downstream of LSS. Kind of test: d6-EPC production from isotopically labeled EPL (d6-EPL) in cells. It is filed as cell-based. From the text: This latter observation raised the hypothesis that Ro 48-8071 inhibited one or more enzymes downstream of LSS thereby blunting EPC synthesis. To evaluate whether Ro 48-8071 inhibits the synthesis of EPC downstream of EPL, we cultured cells with isotopically labeled EPL (d6-EPL) and measured d6-EPC production following compound treatment. Ro 48-8071 inhibited the production of d6-EPC while 1 had no effect on d6-EPC production. […] For small molecules that inhibit enzymes downstream of LSS, our prediction is that lanosterol would not be efficiently converted to cholesterol and therefore would not rescue toxicity as effectively as cholesterol. […] By comparison, exogenous lanosterol and cholesterol provided a complete and equivalent degree of rescue in cells treated with 1.

The next test relates to Dhcr7. Briefly: displacement of Dhcr7-specific probe. It is filed as binding, mouse.
For a further test, the system named is Ebp, Dhcr7, and Dhcr24. Kind of test: cellular levels of sterols that mark inhibition of Ebp, Dhcr7, Dhcr24. It is filed as cell-based. To be noted: for cellular 8,9-dehydrocholesterol (8,9-DHC) levels: marker of EBP inhibition. From the text:
Inhibition of these sterol biosynthetic enzymes might provide an explanation for our observation that Ro-48-8071 has a blunted increase in EPC following LSS inhibition. […] Consistent with the proteomics data, Ro 48-8071 and TASIN-30, but not 1, displaced TASIN-2 (band migrating at approximately 20 kDa).
Consistent with inhibition, the cellular levels of 7-dehydrodesmosterol, a Dhcr7 substrate, accumulated following treatment with Ro 48-8071 but not 1.

For a further test, the system named is UTSW71. Briefly: rescue of toxicity by NB-598 in UTSW71. It is filed as cell-based, human. To be noted: lower doses of NB-598. Here is the method:
Like Mut6 cells, both UTSW63 and UTSW71 grow as neurospheres in serum-free medium (data not shown). […] MM0299 toxicity in the two human GSC lines is completely rescued by exogenous MCD-conjugated lanosterol or cholesterol. A naturally occurring mechanism for the import of extracellular cholesterol is the uptake of circulating low-density lipoprotein (LDL). Therefore, we investigated whether human LDL could rescue MM0299 toxicity in human GBM cells. Addition of 20 μg/ml human LDL completely rescued the toxicity of 1 in both UTSW63 and UTSW71 cells. To investigate the role of the shunt pathway in MM0299 toxicity, we again turned to the tool compound NB-598.

SMILES strings stand for the structures. Where only a bound is given, the exact number is not on record here.

`C=CCN(C)CCCCCCOc1ccc(C(=O)c2ccc(Br)cc2)c(F)c1` [Ro 48-8071, reference compound]: in the test with Mut6 cells [1], the IC50 came out at 11.2 nM. Further, the “peak levels of EPC relative to those after 1 treatment” value in the test on Lss is 62%. For the same compound, in the test on Mut6 cells [2], the “increase in the IC50 with NB-598” value is on record as 3.2 fold. Moreover, the “effect on d6-EPC production from d6-EPL” value in test [3] is listed as “inhibited”. Moreover, the “displacement of Dhcr7-probe (crosslinked Dhcr7 band)” value in the test on Dhcr7 is listed as “displaced”. In the test on Ebp, Dhcr7, and Dhcr24 (Dhcr7 substrate), the “cellular levels of 7-dehydrodesmosterol” value is reported as “accumulated”. In addition, the accumulation of desmosterol entry with Ebp, Dhcr7, and Dhcr24 (marker of Dhcr24 inhibition, high doses) is given as “accumulation”. Moreover, the “cellular 8,9-dehydrocholesterol (8,9-DHC) levels” value with Ebp, Dhcr7, and Dhcr24 is “accumulation”.
With `COc1ccc(C(=O)COc2ccc(N3C(=O)[C@@H]4[C@@H]5C=C[C@@H]([C@H]6C[C@@H]56)[C@@H]4C3=O)cc2)cc1` [compound 1, (3aR,4R,4aR,5aS,6S,6aS)-2-(4-(2-(4-Methoxyphenyl)-2-oxoethoxy)phenyl)-4,4a,5,5a,6,6a-hexahydro-4,6-ethenocyclopropa[f]isoindole-1,3(2H,3aH)-dione], in the test with Lss (0.1 μM compound 1), the “increase of EPC at peak” value was 13.9 fold and the “peak level of EPC” value is listed as 390 ng/mg protein. Moreover, in the test with Lss (1 at 0.1 μM), the “EPC level after lethal dose” value is reported as 342 ng EPC/mg protein. Further, the IC50 in the test with Lss (Mus musculus, read-out: IC50 of lanosterol decrease) came to 45.5 nM. Besides, in the test on Lss (maximum), the “dose-dependent decrease in the product lanosterol” value is “up to 24.5 fold”, the “dose-dependent increase in the primary LSS substrate OS” value is listed as “up to 6.48 fold”, the “increase in shunt pathway intermediate DOS” value is on record as “up to 17.9 fold” and the “increase in shunt pathway intermediate EPL” value is listed as no more than 25.6 fold. Moreover, the “increase in the IC50 with NB-598” value in the test with Mut6 cells [2] worked out at 11.8 fold. In addition, the “increase in IC50 with NB-598, UTSW71” value in the test on UTSW71 turned out to be 21.9 fold. Besides, the “effect on d6-EPC production from d6-EPL” value in test [3] is listed as “no effect”. In addition, the “displacement of Dhcr7-probe (crosslinked Dhcr7 band)” value with Dhcr7 is “did not displace”. The “cellular 8,9-dehydrocholesterol (8,9-DHC) levels” value in the test with Ebp, Dhcr7, and Dhcr24 is listed as “no effect”.

The values above are taken from patent US20250034091A1, “Small molecule inhibitors of lanosterol synthase” (Board of Regents, The University of Texas System, priority 2022, published 2025).
